# Experimental data taken from ChEMBL document CHEMBL3046764, “Heterocyclic ortho-quinones, a novel type of Photosystem II inhibitors” (Biochim Biophys Acta, 2001).
# The source made the active and inactive calls. The rule behind the calls is not given here.
# Biological target: Photosystem II protein D1 (Chlamydomonas reinhardtii) (UniProt P07753)
# Assay: Non-competitive displacement of [14C]atrazine from Chlamydomonas reinhardtii photosystem II protein D1 assessed as DCIP-reduction by double-reciprocal plot
structure (smiles),measurement,value
CCCCCCCC1=C(Br)c2nc3ccccn3c2C(=O)C1=O,Activity,Active
